According to PMC12392461, “Beyond Estrogenicity: A Comparative Assessment of Bisphenol A and Its Alternatives in In Vitro Assays Questions Safety of Replacements” (Environmental Science & Technology, 2025):
Like-named read-outs stand apart in the source and are kept apart here.

How the values were obtained:
[1] = system: ERα-UAS-bla GripTite cells; details: for TKcytotoxicity: TKcytotoxicity-Ratio
Experimental: Cell culture conditions and bioassay protocols including response detection are provided in Text S2.1–2.4 and Table S3. − Cell viability was determined from cell confluency using an IncuCyte S3 Live-Cell Analysis System (Sartorius AG, Essen, Germany) before and after exposure, except for SH-SY5Y cells (live–dead staining with Nuclear Green LcS1 and propidium iodide, Abcam, UK). For metabolic activation experiments, cell viability was assessed using the ToxBLAzer DualScreen Kit (Thermo Fisher Scientific) to capture the remaining toxicity in ERα-UAS-bla GripTite after treatment with the aCYP catalyst (details in Text S2.4). […]
The TK-Ratio method was used to evaluate the impact of abiotic CYP oxidation on the potency of tested compounds. […]
For experiments with the preceding aCYP activation, ERα cell viability was additionally calculated from the readout of the ToxBLAzer reagent. The ToxBLAzer assay was conducted following the manufacturer's instructions (Thermo Fisher, Waltham, MA, U.S.).13 Fluorescence intensity was recorded at the start of the assay ( Fwavelength(0h)) and after a 2-hour incubation at […]
eq. S11 for normalization.
Cell viability = F665nm(2h, sample)-F665nm(0h, average cell-free) (S11) F665nm(2h, average unexposed)-F665nm(0h, average cell-free) […]
the specific endpoint to avoid artifacts from cytotoxicity burst. 15
S2.5: Concentration-response curves (CRCs)
To avoid bias from cytotoxicity burst at higher concentrations, all concentrations exceeding the IC10 for cytotoxicity were excluded in the CRC modeling of effects but otherwise cytotoxicity and effects were fitted with the same model equations (response stands for cytotoxicity or effect). For ERα, AhR, ARE and PPARγ preferably a linear model was fitted to the linear portion of CRC up to maximum 30% effect (eq. S12),16 but in some cases it was necessary to choose a sigmoidal log-concentration-response model, specifically a log-logistic model (eq. S13), to derive effect concentrations and cytotoxicity. […]
This was done using the
AutomatedBioassayScreening19 published by Braun et al.,20 which also included an algorithm to choose the best model between eq. S12 and eq. S13.
Response (%) = slope × C (S12) […]
logEC =logEC − 1 ∙log (max−min − 100%) (S14)

SH-SY5Y cells = assay: cells; details: for EC10: Homo sapiens, SH-SY5Y; for EC10, linear: linear model; for Specificity ratio (SRbaseline) SRNOI: against baseline cytotoxicity; for Relative effect potency REPNOI: relative to BPA; for Specificity ratio (SRcytotoxicity) SRNOI: against experimental cytotoxicity;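 on Relative effect potency REPNOI: EC10 of BPA divided by EC10 of the test compound so values above 1 mean more potent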;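 on Specificity ratio (SRbaseline) SRNOI: ratio of predicted baseline cytotoxicity IC10 to the neurite outgrowth inhibition EC10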
Description: All bioassay media components and the ERα-UAS-bla GripTite and PPARγ-UAS-bla cells were obtained from Thermo Fisher Scientific (Waltham, MA, USA). AREc32 reporter gene cells based on MCF7 were provided by C. Roland Wolf (Cancer Research UK); AhR CALUX cells (H4L7.5c2 derived from H4IIe) were provided by Michael Denison (UC Davis, USA); and SH-SY5Y cells were purchased from Sigma-Aldrich.
Cell culture conditions and bioassay protocols including response detection are provided in Text S2.1–2.4 and Table S3. − Cell viability was determined from cell confluency using an IncuCyte S3 Live-Cell Analysis System (Sartorius AG, Essen, Germany) before and after exposure, except for SH-SY5Y cells (live–dead staining with Nuclear Green LcS1 and propidium iodide, Abcam, UK). For metabolic activation experiments, cell viability was assessed using the ToxBLAzer DualScreen Kit (Thermo Fisher Scientific) to capture the remaining toxicity in ERα-UAS-bla GripTite after treatment with the aCYP catalyst (details in Text S2.4).
For ARE, the concentration that triggered an induction ratio of 1.5 (ECIR1.5) was used as the benchmark value, as detailed in Text S2.5. IC10 values also served as a threshold for data analysis in all assays; only concentrations below IC10 were considered when deriving EC10 or ECIR1.5. […]
S2: Cell culture and bioassays
S2.1: Cell Culturing Conditions
All suppliers and sources are given in detail in SI-Excel S3. The bioassay media for the different assays were prepared as follows: Assay medium for ER alpha-UAS-bla GripTite (ERα) and PPAR gamma-UAS-bla 293H (PPARγ) was prepared with 98% Opti-MEM, supplemented with 2% charcoal-stripped FBS, and 100 U/mL penicillin-streptomycin. MitoOxTox and AhR assay medium was comprised of 90% DMEM with GlutaMAX, supplemented with 10% FBS, and 100 U/mL penicillin-streptomycin. Neurotoxicity assay medium consisted of the neurobasal […]
(1 picture or pasted object on this page, not shown here) […]
medium, supplemented with 2% B-27 Supplement and 2 mM GlutaMAX Supplement. SH - SY5Y cells were differentiated with 10 µM all-trans retinoic acid prior to the assay.
S2.2: Cell Seeding and Incubation. For all bioassays, cell suspensions in the respective assay medium were dispensed into each well of 384-well plates using a MultiFlo Dispenser (Biotek, (now Agilent), Winooski, VT, U.S.). After seeding, the plates were incubated at 37° C and 5% CO₂ for […]. The final cell densities and plate types were as follows: Black poly-D-lysine coated 384-well plates (Product No. 354663, Corning Inc., NYC, U.S.) were used for PPARγ:
6500 cells/well, ERα: 5000 cells/well. White 384-well plates with a clear bottom (Product No.
781098, Greiner, Kremsmünster, Austria) were utilized for the MitoOxTox assay: 2650

[2] = Acidity constant (pKa) measurement, Sirius T3 UV-metric, and speciation at pH 7.4; details: for Double negative form (pH = 7.40) / Negative form (pH = 7.40) / Neutral form (pH = 7.40) / αneutral % (fraction of neutral species): from experimental pKa; for αneutral % (fraction of neutral species): pH 7.4; for pKa: pKa (Acid)
Experimental: Physicochemical properties provide input parameters for the baseline toxicity model. Acidity constants (pK a) and octanol–water partition constants of the neutral species (K ow) were measured with a Sirius T instrument from Pion Inc. (Sussex, UK) (Text S1.2 and Table S1). A detailed description of the pK a and K ow measurements can be found in literature. , […]
S1.2: pKa and log Kow measurements […]
titrator (Pion Inc., Sussex, U.K.). A detailed description of the experimental procedure is available in the literature.1 In brief, each sample was prepared by mixing 5 µL of a 10 mM dimethyl sulfoxide (DMSO) stock solution with 25 µL of a phosphate buffer solution (14.4 mM […]
A reference vial containing 5 µL of DMSO
(Roth, A994-100 ML) and 25 µL of phosphate buffer was analyzed alongside each sample.
The pKa values were determined using the automated UV-metric pKa protocol within the Sirius T3 Control software (version 2.0.0.0.). Each sample was subjected to three consecutive […]
from 2 to 12 by stepwise addition of 0.5 M HCl or 0.5 M potassium hydroxide while recording […]
UV absorbance. […]
To ensure reproducibility, measurements were conducted on at least two

[3] = read-out: EC10, linear transformed
[4] = phosphate buffer with […] KCl, Sirius T3 titrator, second pKa column, experimental, this study
[5] = phosphate buffer with […] KCl, Sirius T3 titrator, experimental, this study

Row | SMILES | TKcytotoxicity ([1]; Table S10) | EC10 (SH-SY5Y cells; read-out: EC10, NOI) | EC10 (SH-SY5Y cells; read-out: EC10, NOI (M)) | EC10 (SH-SY5Y cells; read-out: EC10, linear) | EC10 (SH-SY5Y cells; [3]) | EC10 (SH-SY5Y cells; read-out: logEC10) | Double negative form (pH = 7.40) [2] | Negative form (pH = 7.40) [2] | Neutral form (pH = 7.40) [2] | αneutral % (fraction of neutral species) [2] | EC10, linear (SH-SY5Y cells; NOI bioassay, dosing range all) | Specificity ratio (SRbaseline) SRNOI (SH-SY5Y cells) | Relative effect potency REPNOI (SH-SY5Y cells) | pKa [2, 4] | pKa [2, 5] | also measured
1 | Oc1ccc(C2(c3ccc(O)cc3)CCCCC2)cc1 [BPZ, 1,1'-Bis(4-hydroxyphenyl)cyclohexane] | 0.53 | 3.05e-05 M | 3.05e-05 M | 3.52e-05 M | 4.31e-05 M | 3.02e-05 M | 0.00202% | 1.11% | 99% | 99% |  |  |  |  |  | pKa ([2]; second pKa column, experimental, this study): 10.1; pKa ([2]; experimental, this study): 9.35
2 | Cc1ccc(S(=O)(=O)NC(=O)Nc2ccc(Cc3ccc(NC(=O)NS(=O)(=O)c4ccc(C)cc4)cc3)cc2)cc1 [BTUM, 4,4'-Bis(p-tolylsulfonylureido)diphenylmethane] |  | 6.48e-05 M | 6.48e-05 M |  | 6.48e-05 M | 6.46e-05 M | 99.53% | 0.47% | 0.0007% | 0.0007% | no effect | 1.03 | 0.78 | 5.07 | 4.59 | IC10, before oxidation ([1]; Table S10, cytotoxicity from ToxBLazer data, without simultaneous cparent measurement): no cytotoxicity; TKcytotoxicity ([1]; Table S11): 2.25
3 | COC(=O)C(c1ccc(O)cc1)c1ccc(O)cc1 [Bz, Methyl bis(4-hydroxyphenyl)acetate] | 2.48 |  |  |  | 0.0004 M | 0.00038 M | 3% | 26% | 71% | 71% | no effect |  |  | 8.34 | 7.83 | TKcytotoxicity (TK-Ratio for cytotoxicity) ([1]; IC10 before/after aCYP oxidation): 2.48 ± 0.69
4 | O=C(OCc1ccccc1)c1ccc(O)cc1 [BzPB, Benzyl 4-hydroxybenzoate] | 1.10 |  |  |  | 0.000412 M |  |  | 0.599% | 99% | 99% | no effect |  |  |  | 9.62 | logEC10 (SH-SY5Y cells; NOI bioassay, dosing range all, log-logistic model): no effect
5 | CC(C)Oc1ccc(S(=O)(=O)c2ccc(O)cc2)cc1 [D8, 4-((4-Isopropoxyphenyl)sulfonyl)phenol] | 0.94 | 0.000191 M | 0.000191 M | 0.000353 M | 0.000186 M | 0.000191 M |  | 39% | 61% | 61% |  | 0.56 | 0.27 |  | 7.6 | Specificity ratio (SRcytotoxicity) SRNOI (SH-SY5Y cells): 2.56
6 | Cc1ccc(S(=O)(=O)NC(=O)Nc2cccc(OS(=O)(=O)c3ccc(C)cc3)c2)cc1 [Pergafast, N-(p-toluenesulfonyl)-N'-(3-(p-toluenesulfonyloxy)phenyl)urea] | 0.45 | 1.25e-05 M | 1.25e-05 M | 1.25e-05 M | 1.52e-05 M | 1.51e-05 M |  | 100% | 0.089% | 0.089% |  | 8.80 | 4.06 |  | 4.35 | Specificity ratio (SRcytotoxicity) SRNOI (SH-SY5Y cells): 3.95
7 | CC(C)(c1cc(Br)c(O)c(Br)c1)c1cc(Br)c(O)c(Br)c1 [TBBPA, 3,3',5,5'-Tetrabromobisphenol A] | 0.52 |  |  |  |  |  | 56% | 39% | 4.58% | 5% | no effect |  |  | 7.24 | 6.47 | logEC10 (SH-SY5Y cells): no effect
8 | CC(C)(c1cc(Cl)c(O)c(Cl)c1)c1cc(Cl)c(O)c(Cl)c1 [TCBPA, 2,2',6,6'-Tetrachlorobisphenol A] | 0.85 | 0.000322 M | 0.000322 M |  | 0.000322 M | 0.000324 M | 11% | 60% | 29% | 29% | masked by cytotoxicity |  |  |  |  | TKcytotoxicity ([1]; Table S11): 0.40; pKa (Acid) [2]: 8.13; pKa [2]: 7.08
